Values belong to the molecule of their own block, whether it stands above or below them.
Legend:
AURKA (Aurora A) = AURKA (Aurora A) (Homo sapiens (Human), UniProt O14965); assay: Aurora-A enzyme assay (Z'-LYTE); type: biochemical; settings: 10 μM ATP, arithmetic mean of two or more experiments; for IC50: read-out: AurA enz pIC50 (converted)
Protocol: (§1) The inhibitory activity of compounds against AURKA, AURKB, JAK1, JAK2 and JAK3 was determined in Z′-LYTE® assays run by ThermoFisher Scientific as part of their SelectScreen® Biochemical Kinase Profiling Service. The Z′-LYTE® biochemical assay format employs a fluorescence-based, coupled-enzyme format and is based on the differential sensitivity of phosphorylated and non-phosphorylated peptides to proteolytic cleavage. The peptide substrate is labeled with two fluorophores—one at each end—that make up a FRET pair. In the primary reaction, the kinase transfers the gamma-phosphate of ATP to a single tyrosine, serine or threonine residue in a synthetic FRET-peptide. In the secondary reaction, a site-specific protease recognises and cleaves non-phosphorylated FRET-peptides. Phosphorylation of FRET-peptides suppresses cleavage by the Development Reagent. Cleavage disrupts FRET between the donor (i.e., coumarin) and acceptor (i.e., fluorescein) fluorophores on the FRET-peptide, whereas uncleaved, phosphorylated FRET-peptides maintain FRET. A ratiometric method, which calculates the ratio (the Emission Ratio) of donor emission to acceptor emission after excitation of the donor fluorophore at 400 nm, is used to quantitate reaction progress. Both cleaved and uncleaved FRET-peptides contribute to the fluorescence signals and therefore to the Emission Ratio. The extent of phosphorylation of the FRET-peptide can be calculated from the Emission Ratio.
(§2) 10 point three-fold dilution compound concentration-response curves, with a top concentration of 10 μM were generated from 10 mM stocks of compound solubilised in DMSO. All assays were performed in black, non-binding, low volume Corning 384-well plates (cat. #4514, Corning), in a total reaction volume of 10 μL and 1% (v/v) final DMSO concentration. […] The kinase reaction was then quenched by the addition of 5 μL of Development Reagent (ThermoFisher Scientific proprietary). […] IC50 values were calculated using XLfit software (IDBS Ltd, Surrey, UK), with the curve fit to model number 205 (sigmoidal dose-response model).
Aurora A (AurA): The 2×AURKA (Aurora A)/Ser/Thr 01 (ThermoFisher Scientific proprietary) mixture was prepared in 50 mM HEPES pH 7.5, 0.01% BRIJ-35, 10 mM MgCl2, 1 mM EGTA. […] After the 1 hour Kinase Reaction incubation, 5 μL of a 1:4096 dilution of Development Reagent was added.

DNAPK = DNAPK (Homo sapiens (Human), UniProt P78527); assay: DNAPK cellular potency assay (DNA-PK cell), pS2056-DNAPK ELISA in irradiated A549 cells; type: cell-based; settings: 8 Gy radiation, arithmetic mean of two or more experiments, read-out: DNA-PK cell pIC50 (converted)
Protocol: The DNAPK cell ELISA assay was performed in the A549 cell line. A549 cells were cultured in cell media composed of MEM-F12 (Minimum Essential Medium F12 Sigma #D6421), 10% (v/v) Foetal Calf Serum and 1% (v/v) 200 mM L-Glutamine. […] The following day the Greiner ELISA plates were washed 3× with PBS-T and blocked with 3% BSA/PBS for 2 h, before a further 3× wash with PBS-T.
The cell plates were then incubated for 1 h at 37° C. before receiving a radiation dose of 8 Gy (XRAD 320, table height 65). The cells were incubated for a further 1 h before removal of cell media. […] Cell lysates ([…]) were transferred to the DNAPK antibody-coated ELISA plates using a CyBio Felix liquid handling platform, and ELISA plates were incubated at 4° C. overnight.
The following day, ELISA plates were washed 3× with PBS-T and dispensed with in-house pS2056-DNAPK antibody (0.5 μg/mL in 3% BSA/PBS) at 20 ul/well.
The fluorescence intensity of individual wells was determined using a PerkinElmer EnVision plate reader.
Data was analysed and IC50 values were calculated using Genedata Screener® software (Genedata, Inc., Basel, Switzerland).

AURKB (Aurora B) = AURKB (Aurora B) (Homo sapiens (Human), UniProt Q96GD4); assay: Aurora-B enzyme assay (Z'-LYTE); type: biochemical; settings: 75 μM ATP, arithmetic mean of two or more experiments; for IC50: read-out: AurB enz pIC50 (converted)
Sequence of AURKB (Aurora B) (Q96GD4 whole entry): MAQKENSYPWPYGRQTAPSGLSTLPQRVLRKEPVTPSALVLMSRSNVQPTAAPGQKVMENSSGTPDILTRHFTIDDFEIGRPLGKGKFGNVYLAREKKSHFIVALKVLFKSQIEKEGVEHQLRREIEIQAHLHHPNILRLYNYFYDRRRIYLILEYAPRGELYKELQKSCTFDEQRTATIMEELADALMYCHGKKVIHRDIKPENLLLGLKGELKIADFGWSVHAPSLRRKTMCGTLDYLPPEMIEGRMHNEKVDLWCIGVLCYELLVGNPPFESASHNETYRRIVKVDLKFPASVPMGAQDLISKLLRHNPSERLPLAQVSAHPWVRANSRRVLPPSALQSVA
Protocol: as §1, §2
Aurora B (AurB): The 2×AURKB (Aurora B)/Ser/Thr 01 (ThermoFisher Scientific proprietary) mixture was prepared in 50 mM HEPES pH 7.5, 0.01% BRIJ-35, 10 mM MgCl2, 1 mM EGTA. […] After the 1 hour Kinase Reaction incubation, 5 μL of a 1:4096 dilution of Development Reagent was added.

JAK2 = JAK2 (Homo sapiens (Human), UniProt O60674); assay: JAK2 enzyme assay (Z'-LYTE); type: biochemical; settings: 25 μM ATP, arithmetic mean of two or more experiments; for IC50: read-out: JAK2 enz pIC50 (converted)
Sequence of JAK2 (O60674 whole entry): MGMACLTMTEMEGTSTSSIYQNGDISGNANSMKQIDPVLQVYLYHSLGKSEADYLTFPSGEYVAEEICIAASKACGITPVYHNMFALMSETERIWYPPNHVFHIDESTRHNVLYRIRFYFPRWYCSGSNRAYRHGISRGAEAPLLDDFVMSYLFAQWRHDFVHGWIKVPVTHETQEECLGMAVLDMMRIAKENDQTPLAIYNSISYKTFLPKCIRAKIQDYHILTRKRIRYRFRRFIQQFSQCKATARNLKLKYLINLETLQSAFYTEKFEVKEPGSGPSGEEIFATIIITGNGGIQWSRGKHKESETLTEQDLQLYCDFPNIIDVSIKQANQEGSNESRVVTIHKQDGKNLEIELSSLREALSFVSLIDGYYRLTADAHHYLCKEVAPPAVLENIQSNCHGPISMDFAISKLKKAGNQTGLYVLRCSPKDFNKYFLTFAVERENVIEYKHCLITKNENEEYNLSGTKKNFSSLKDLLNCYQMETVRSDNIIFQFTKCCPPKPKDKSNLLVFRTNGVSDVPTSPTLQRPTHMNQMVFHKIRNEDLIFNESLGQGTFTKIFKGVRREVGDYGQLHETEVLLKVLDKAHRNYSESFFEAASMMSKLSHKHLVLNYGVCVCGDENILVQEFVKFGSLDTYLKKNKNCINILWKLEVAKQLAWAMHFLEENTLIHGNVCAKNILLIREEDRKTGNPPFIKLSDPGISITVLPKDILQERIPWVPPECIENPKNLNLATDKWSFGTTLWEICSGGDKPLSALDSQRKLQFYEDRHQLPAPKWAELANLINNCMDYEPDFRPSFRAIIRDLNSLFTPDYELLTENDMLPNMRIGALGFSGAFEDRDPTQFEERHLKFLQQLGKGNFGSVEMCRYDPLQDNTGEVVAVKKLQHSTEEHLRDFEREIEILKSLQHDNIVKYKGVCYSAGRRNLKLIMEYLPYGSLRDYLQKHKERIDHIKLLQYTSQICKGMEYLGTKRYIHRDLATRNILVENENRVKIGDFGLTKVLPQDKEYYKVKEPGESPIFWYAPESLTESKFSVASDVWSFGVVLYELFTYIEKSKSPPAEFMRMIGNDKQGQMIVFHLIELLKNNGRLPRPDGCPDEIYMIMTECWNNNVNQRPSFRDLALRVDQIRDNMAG
Protocol: as §1, §2
JAK2: The 2×JAK2/Tyr 06 (ThermoFisher Scientific proprietary) mixture was prepared in 50 mM HEPES pH 7.5, 0.01% BRIJ-35, 10 mM MgCl2, 1 mM EGTA. […] After the 1 hour Kinase Reaction incubation, 5 μL of a 1:128 dilution of Development Reagent was added.

JAK3 = JAK3 (Homo sapiens (Human), UniProt P52333); assay: JAK3 enzyme assay (Z'-LYTE); type: biochemical; settings: 10 μM ATP, arithmetic mean of two or more experiments; for IC50: read-out: JAK3 enz pIC50 (converted)
Sequence of JAK3 (P52333 whole entry): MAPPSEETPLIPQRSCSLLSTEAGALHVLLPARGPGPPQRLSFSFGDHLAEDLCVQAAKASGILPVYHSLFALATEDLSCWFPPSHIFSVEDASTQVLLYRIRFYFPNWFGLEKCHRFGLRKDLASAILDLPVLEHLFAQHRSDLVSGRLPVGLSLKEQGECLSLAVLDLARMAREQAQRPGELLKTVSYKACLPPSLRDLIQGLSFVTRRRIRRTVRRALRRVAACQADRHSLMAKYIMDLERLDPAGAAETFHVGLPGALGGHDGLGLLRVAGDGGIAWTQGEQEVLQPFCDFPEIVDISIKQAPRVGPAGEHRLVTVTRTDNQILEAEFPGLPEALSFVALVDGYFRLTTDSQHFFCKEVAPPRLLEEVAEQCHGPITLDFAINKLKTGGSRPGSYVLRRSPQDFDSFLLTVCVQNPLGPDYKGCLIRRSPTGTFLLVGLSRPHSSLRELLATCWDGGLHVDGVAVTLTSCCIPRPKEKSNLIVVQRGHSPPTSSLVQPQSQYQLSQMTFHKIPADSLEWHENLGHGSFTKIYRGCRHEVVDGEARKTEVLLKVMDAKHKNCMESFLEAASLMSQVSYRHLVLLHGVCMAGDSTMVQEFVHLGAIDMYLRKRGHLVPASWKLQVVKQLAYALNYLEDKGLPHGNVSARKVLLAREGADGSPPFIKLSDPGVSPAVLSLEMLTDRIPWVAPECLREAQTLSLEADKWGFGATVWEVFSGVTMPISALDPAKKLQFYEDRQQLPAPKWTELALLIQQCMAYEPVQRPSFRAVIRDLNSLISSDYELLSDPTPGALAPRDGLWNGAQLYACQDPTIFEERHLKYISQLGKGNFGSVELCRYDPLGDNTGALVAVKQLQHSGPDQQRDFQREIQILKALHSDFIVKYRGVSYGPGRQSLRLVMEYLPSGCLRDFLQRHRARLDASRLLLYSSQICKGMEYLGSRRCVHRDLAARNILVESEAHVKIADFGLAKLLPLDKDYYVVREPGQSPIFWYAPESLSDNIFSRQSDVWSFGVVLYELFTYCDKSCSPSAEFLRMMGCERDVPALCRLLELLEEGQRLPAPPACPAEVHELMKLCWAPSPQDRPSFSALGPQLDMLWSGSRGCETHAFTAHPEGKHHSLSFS
Protocol: as §1, §2
JAK3: The 2×JAK3/Tyr 06 (ThermoFisher Scientific proprietary) mixture was prepared in 50 mM HEPES pH 7.5. 0.01% BRIJ-35, 10 mM MgCl2, 1 mM EGTA. […] After the 1 hour Kinase Reaction incubation, 5 μL of a 1:128 dilution of Development Reagent was added.

Sequence of AURKA (Aurora A) (O14965 whole entry): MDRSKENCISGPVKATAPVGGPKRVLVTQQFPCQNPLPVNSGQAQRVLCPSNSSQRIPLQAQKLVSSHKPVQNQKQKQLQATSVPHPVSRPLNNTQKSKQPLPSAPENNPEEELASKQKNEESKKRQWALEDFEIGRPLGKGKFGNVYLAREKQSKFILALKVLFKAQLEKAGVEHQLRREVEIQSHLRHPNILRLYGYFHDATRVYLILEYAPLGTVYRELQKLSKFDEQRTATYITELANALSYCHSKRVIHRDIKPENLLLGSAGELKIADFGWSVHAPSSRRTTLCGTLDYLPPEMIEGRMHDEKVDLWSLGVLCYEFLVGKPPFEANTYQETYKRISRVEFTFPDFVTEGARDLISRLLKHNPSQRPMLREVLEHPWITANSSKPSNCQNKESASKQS

SMILES: Cc1cc2nnccc2cc1Nc1ncc2c(n1)n([C@@H]1CCOC1)c(=O)n2C [Example 23, (R)-7-methyl-2-((7-methylcinnolin-6-yl)amino)-9-(tetrahydrofuran-3-yl)-7,9-dihydro-8H-purin-8-one]
AurA enz pIC50 (AURKA (Aurora A)): <5 | IC50 (DNAPK): 63.1 nM | AurB enz pIC50 (AURKB (Aurora B)): <5 | JAK2 enz pIC50 (JAK2): <5 | JAK3 enz pIC50 (JAK3): <5

SMILES: CC(=O)N1CCC(n2c(=O)n(C)c3cnc(Nc4cc5cncnc5cc4C)nc32)CC1 [Example 3, 9-(1-acetylpiperidin-4-yl)-7-methyl-2-((7-methylquinazolin-6-yl)amino)-7,9-dihydro-8H-purin-8-one]
AurA enz pIC50 (AURKA (Aurora A)): <5 | IC50 (DNAPK): 63.1 nM | AurB enz pIC50 (AURKB (Aurora B)): <5 | JAK2 enz pIC50 (JAK2): <5 | JAK3 enz pIC50 (JAK3): <5

SMILES: Cc1cc2nnccc2cc1Nc1ncc2c(n1)n([C@H]1CCOC1)c(=O)n2C [Example 21, (S)-7-methyl-2-((7-methylcinnolin-6-yl)amino)-9-(tetrahydrofuran-3-yl)-7,9-dihydro-8H-purin-8-one]
AurA enz pIC50 (AURKA (Aurora A)): <5 | IC50 (DNAPK): 15.8 nM | AurB enz pIC50 (AURKB (Aurora B)): <5 | JAK2 enz pIC50 (JAK2): <5 | JAK3 enz pIC50 (JAK3): <5

SMILES: Cc1cc2nccnc2cc1Nc1ncc2c(n1)n([C@H]1CC[C@](C)(O)CC1)c(=O)n2C [Example 18, 9-((1r,4r)-4-hydroxy-4-methylcyclohexyl)-7-methyl-2-((7-methylquinoxalin-6-yl)amino)-7,9-dihydro-8H-purin-8-one]
IC50 (AURKA (Aurora A)): > 10000 nM | IC50 (DNAPK): 50.1 nM | IC50 (AURKB (Aurora B)): > 10000 nM | IC50 (JAK2): > 10000 nM | IC50 (JAK3): > 10000 nM

SMILES: Cc1cc2nnccc2cc1Nc1ncc2c(n1)n([C@H]1CC[C@@H](O)CC1)c(=O)n2C [Example 12, 9-((1s,4s)-4-hydroxycyclohexyl)-7-methyl-2-((7-methylcinnolin-6-yl)amino)-7,9-dihydro-8H-purin-8-one]
AurA enz pIC50 (AURKA (Aurora A)): <5 | IC50 (DNAPK): 20 nM | AurB enz pIC50 (AURKB (Aurora B)): <5 | JAK2 enz pIC50 (JAK2): <5 | JAK3 enz pIC50 (JAK3): <5

SMILES: Cc1cc2nnccc2cc1Nc1ncc2c(n1)n([C@@H]1CCCOC1)c(=O)n2C [Example 25, (R)-7-methyl-2-((7-methylcinnolin-6-yl)amino)-9-(tetrahydro-2H-pyran-3-yl)-7,9-dihydro-8H-purin-8-one]
AurA enz pIC50 (AURKA (Aurora A)): <5 | IC50 (DNAPK): 39.8 nM | AurB enz pIC50 (AURKB (Aurora B)): <5 | JAK2 enz pIC50 (JAK2): <5 | JAK3 enz pIC50 (JAK3): <5

SMILES: Cc1cc2ncccc2cc1Nc1ncc2c(n1)n(C1CCN(C3COC3)CC1)c(=O)n2C [Example 47, 7-methyl-2-((7-methylquinolin-6-yl)amino)-9-(1-(oxetan-3-yl)piperidin-4-yl)-7,9-dihydro-8H-purin-8-one]
AurA enz pIC50 (AURKA (Aurora A)): <5 | IC50 (DNAPK): 200 nM | AurB enz pIC50 (AURKB (Aurora B)): <5 | JAK2 enz pIC50 (JAK2): <5 | JAK3 enz pIC50 (JAK3): <5

SMILES: CC(=O)N1CCC(n2c(=O)n(C)c3cnc(Nc4cc5nc(C)cnc5cc4C)nc32)CC1 [Example 5, 9-(1-acetylpiperidin-4-yl)-2-((3,7-dimethylquinoxalin-6-yl)amino)-7-methyl-7,9-dihydro-8H-purin-8-one]
AurA enz pIC50 (AURKA (Aurora A)): <5 | IC50 (DNAPK): 100 nM | AurB enz pIC50 (AURKB (Aurora B)): <5 | JAK2 enz pIC50 (JAK2): <5 | JAK3 enz pIC50 (JAK3): <5

IC50 (AURKA (Aurora A)): > 10000 nM | IC50 (DNAPK): 126 nM | IC50 (AURKB (Aurora B)): > 10000 nM | IC50 (JAK2): > 10000 nM | IC50 (JAK3): > 10000 nM
SMILES: Cc1cnc2cc(Nc3ncc4c(n3)n(C3CCOCC3)c(=O)n4C)c(C)cc2n1 [Example 33, 2-((2,7-dimethylquinoxalin-6-yl)amino)-7-methyl-9-(tetrahydro-2H-pyran-4-yl)-7,9-dihydro-8H-purin-8-one]

SMILES: Cc1cc2ncccc2cc1Nc1ncc2c(n1)n([C@H]1CC[C@H](O)CC1)c(=O)n2C [Example 6, 9-((1r,4r)-4-hydroxycyclohexyl)-7-methyl-2-((7-methylquinolin-6-yl)amino)-7,9-dihydro-8H-purin-8-one]
AurA enz pIC50 (AURKA (Aurora A)): <5 | IC50 (DNAPK): 5.01 nM | AurB enz pIC50 (AURKB (Aurora B)): <5 | JAK2 enz pIC50 (JAK2): <5 | JAK3 enz pIC50 (JAK3): <5

From patent publication US11884671B2, “Purinone compounds and their use in treating cancer” (ASTRAZENECA AB, priority 2018, dated 2024)
